Source: US12582666B2, “Low dose therapeutic treatment” (Syqe Medical Ltd., priority 2016, dated 2026)

Tests used:
CB1 and CB2 receptors = conditions: comparison of the two receptors; cited from earlier work
5-HT1A receptor = target: T1, 5-HT1A receptor (Homo sapiens, UniProt P08908); conditions: cited from earlier work
T1 sequence (P08908 1-422): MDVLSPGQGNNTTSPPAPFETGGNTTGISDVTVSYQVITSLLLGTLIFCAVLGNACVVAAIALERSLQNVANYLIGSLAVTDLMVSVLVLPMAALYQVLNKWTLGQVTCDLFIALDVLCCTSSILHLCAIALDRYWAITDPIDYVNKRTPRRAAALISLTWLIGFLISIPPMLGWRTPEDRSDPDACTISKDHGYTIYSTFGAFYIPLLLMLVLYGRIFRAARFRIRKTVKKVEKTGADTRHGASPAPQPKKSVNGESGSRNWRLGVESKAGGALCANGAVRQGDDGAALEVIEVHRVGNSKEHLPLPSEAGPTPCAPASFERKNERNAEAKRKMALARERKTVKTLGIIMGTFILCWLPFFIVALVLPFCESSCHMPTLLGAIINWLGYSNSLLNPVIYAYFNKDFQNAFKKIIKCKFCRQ

GPR55 = GPR55 (Homo sapiens, UniProt Q9Y2T6); conditions: cited from earlier work
Chain of GPR55 (Q9Y2T6 whole entry, species assumed): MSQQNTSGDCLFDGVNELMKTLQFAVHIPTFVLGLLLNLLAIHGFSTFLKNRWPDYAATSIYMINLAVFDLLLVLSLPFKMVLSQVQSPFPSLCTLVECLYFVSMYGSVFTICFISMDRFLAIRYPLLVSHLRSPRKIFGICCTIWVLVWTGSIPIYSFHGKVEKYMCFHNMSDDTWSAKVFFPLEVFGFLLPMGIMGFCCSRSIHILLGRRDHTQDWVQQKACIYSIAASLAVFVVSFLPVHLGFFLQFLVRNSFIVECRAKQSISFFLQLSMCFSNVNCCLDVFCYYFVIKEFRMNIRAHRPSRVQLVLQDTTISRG

[1] = tested on: nausea of a patient undergoing chemotherapy; test: FIG. 11: nausea of a chemotherapy patient treated with 0.5 mg inhaled THC doses; type: in vivo, human; conditions: first 0.5 mg THC dose 30 minutes before chemotherapy
Experimental: FIG. 11 is a graphical representation of the treatment effect achieved by pulmonary delivery of 0.5 mg THC doses, delivered at time intervals of at least two hours, according to some embodiments of the invention.
In this example, nausea levels of a patient undergoing chemotherapy are shown, as indicated by the arbitrary Y-axis scale. The black line depicts a typical nausea effect that is often witnessed when no special anti-nausea treatment is provided (optionally other than the conventional prophylactic treatment provided normally intravenously in chemotherapy sessions).
Chemotherapy commenced at 7:00 AM, as indicated by the black arrow. […] It may remain high when not treated or even with conventional treatment, although the degree of nausea may fluctuate.
The gray line depicts nausea levels under treatment with 0.5 mg doses of THC, delivered in intervals of at least two hours, indicated by the grey triangles. […] Two additional doses of 0.5 mg THC each, delivered at 12:30 and at 19:00, sufficed to allow the patient to combat the nausea throughout the day.

[2] = tested on: cancer patients suffering from advanced symptoms and/or side effects of chemotherapy; test: Inventors' experiments: low dose inhaled THC, at least two hours between doses; type: in vivo, human
Experimental: It has been shown by inventors in experiments performed that an inhaled THC dose of 0.2-2 mg may provide sufficient symptom alleviation for a time period of at least 2 hours, at least 3 hours, at least 4 hours, at least 6 hours or intermediate or longer time periods. […] Other examples of symptoms which may be alleviated by prescribing a low dose regimen may include adverse effects of chemotherapy and/or vomiting and/or weight loss and/or insomnia and/or euphoria and/or drowsiness and/or psychomotor effects and/or cognitive effects, and/or agitation and/or depression.
Cancer patients suffering from advanced symptoms and/or side effects of chemotherapy were treated in accordance with the above described regimen, being delivered a dose of between 0.2-2 mg THC at a single delivery event and waiting at least two hours before the next dose. The patients voluntarily reported their conditions.
In a first case, a cancer patient was admitted to hospital for chemotherapy. They were previously prescribed cannabis for pain, vomiting, nausea and weight loss, which they took by smoking cigarettes. […] In the experiment, the patient was prescribed 3×0.5 mg THC per day, delivered using an inhaler device for example as described hereinabove. The first dose was to be taken 30 minutes before chemotherapy. The patient was allowed to take additional inhalations as needed. […] The patient inhaled the 3 prescribed doses only, and no other medication was prescribed or taken. Later, the same patient readmitted to hospital for an additional round of chemotherapy. This time they chose to inhale THC in four 0.5 mg doses, a first dose in the morning before chemotherapy, second and third doses taken concomitantly at midday (amounting to a single 1 mg dose) and a fourth dose in the evening.
In a second case, a cancer patient was admitted to the hospital for severe pain and in order to resume treatment that they chose to terminate earlier. They were previously prescribed cannabis for pain, cachexia and nausea, in addition to other drugs. Throughout the treatment, they received a continuous morphine drip (400-600 mg) with additional morphine treatment upon need. Before being hospitalized, they had not eaten for a week, suffered from sleep deprivation and was depressed. In the hospital they were provided with an inhaler for example as described hereinabove and during the first day of use they inhaled 0.5 mg THC doses 18 times a day, which included 4 previously prescribed doses of 0.5 mg and many demands for additional pain relief. On the next day they reduced the intake to 1 mg inhalations, 4 times a day, continuing for a period of 8 days.

pain = test: FIG. 10: pain treated with 0.5 mg inhaled THC doses at intervals of at least two hours; type: in vivo, human
Experimental: FIG. 10 is a graphical representation of a regimen for the treatment of pain by pulmonary delivery of 0.5 mg THC doses delivered in time intervals of at least two hours, according to some embodiments of the invention.
In this use over a time period of 16 hours, 4 doses of 0.5 mg THC each were provided at time intervals of at least two hours between sequential doses, indicated by the grey triangles. The black line represents the symptom level, in this case pain, and the grey line represents psychoactive effects.
The x-axis represents the time of day, and the y-axis represents an arbitrary scale for indicating symptom severity and level of psychoactivity. The scale represents, based on user reports, a grade of the symptoms and a grade of the psychoactive effects, for example compared to a baseline report collected from the patient before treatment.

[3] = cited from earlier work
[4] = single inhaled cannabis dose, Syqe Inhaler

Row | SMILES | affinity for the CB1 and CB2 receptors (CB1 and CB2 receptors) | action at 5-HT1A receptor (5-HT1A receptor) | action at GPR55 (GPR55) | maximum nausea level reached [1] | onset of nausea [1] | eating ([2]; cancer patient, 0.5 mg THC 18 times on first day, then 1 mg 4 times a day for 8 days, with morphine drip) | mood ([2]; cancer patient, 3×0.5 mg THC per day by inhaler) | mood ([2]; cancer patient, inhaled THC with morphine drip) | time period of sufficient symptom alleviation ([2]; inhaled THC dose of 0.2-2 mg) | treatment outcome in additional round of chemotherapy ([2]; same patient, four 0.5 mg inhaled THC doses) | time after dose at which pain level begins to rise again (pain; 0.5 mg THC inhaled) | pain level after first dose (pain; 0.5 mg THC inhaled at 6:30, arbitrary scale from user reports) | psychoactivity after first dose (pain; 0.5 mg THC inhaled, arbitrary scale from user reports) | Tmax±SD ([3]; single 15.1±0.1 mg dose of cannabis inhaled with Syqe Inhaler, eight patients) [min] | interindividual variability of Cmax [3, 4] [%] | plasma Cmax increase per mg Δ(9)-THC administered [3, 4] [ng/mL/mg THC]
1 | C=C(C)[C@@H]1CCC(C)=C[C@H]1c1c(O)cc(CCCCC)cc1O [CBD, Cannabidiol] | greater affinity for the CB2 receptor than for the CB1 receptor | 5-HT1A receptor agonist | antagonist | – | – | – | – | – | – | – | – | – | – | – | – | –
2 | CCCCCc1cc(O)c2c(c1)OC(C)(C)[C@@H]1CCC(C)=C[C@@H]21 [THC, Δ9-tetrahydrocannabinol] | approximately equal affinity for the CB1 and CB2 receptors | – | – | significant reduction in the maximum level reached | significant delay in the onset of nausea | ate 3 meals per day | significantly improved mood | significant mood improvement | at least 2 hours | effective | about 2 hours | effective to dramatically reduce the pain level | A rise in psychoactivity occurs | 3 ± 1 | 25.3 | 12.3
